Data set [1] has as its system HeLa cells. As to the kind of experiment: Cell viability (MTS) assay, MNNG-induced parthanatos. The class given is cell-based. The settings on record: 3 h pretreatment, MNNG 50 μM 15 min, 24 h, MTS, read-out: EC50, protection from MNNG-induced parthanatos.
A further data set has as its target T1, MIF/ssDNA binding (Homo sapiens, UniProt P14174).
T1 construct: made in house; host or cells: Escherichia coli BL21
T1 sequence (P14174 2-115 limits assumed): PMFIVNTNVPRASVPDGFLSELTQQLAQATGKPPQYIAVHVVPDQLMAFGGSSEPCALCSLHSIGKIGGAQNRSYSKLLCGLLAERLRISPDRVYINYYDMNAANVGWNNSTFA
The data set can be described thus: MIF/ssDNA binding assay (ZP307-labeled MIF, PA20-Q1 quenching). The note with it: labeled MIF 1 μM, PA20-Q1 1 μM; 6y up to 100 μM. The source says: Although in our hands the nuclease activity could not unambiguously be assigned to MIF (due to the possibility of bacterial contamination), there is still a possibility that MIF binds to single-stranded DNA (ssDNA). Furthermore, the direct interaction between MIF and ssDNA was investigated. We developed a MIF/ssDNA binding assay to detect and quantify the binding of MIF to ssDNA (Figure 6f). To establish this assay, we employed a MIF probe ZP307 (Figure 1c) that binds covalently to the N-terminal proline of MIF. This probe enables the fluorescent labeling of MIF.[38] The oligonucleotide Poly A was earlier described as a MIF nuclease substrate, lacking a secondary structure.[11] […] This enabled using the BHQ1-labeled poly A oligonucleotide (PA20-Q1) as an energy acceptor to quench fluorescence emission by labeling MIF once a MIF/ssDNA complex formed (Figure 6f). […]
Five equivalents of probe ZP307 were mixed with recombinant MIF protein for MIF labeling and incubated overnight at 4 °C. […] The fluorescence (Ex488/Em520) was determined immediately using a BioTek Synergy H1 Hybrid plate reader. The wells in the absence of PA20-Q1 were considered a positive control (100% of fluorescence signal), whereas the wells without inhibitors were considered a negative control (0% of fluorescence signal).

For data set [2], the system named is HeLa cells. The class given is cell-based.
Another data set addresses T2, MIF (Homo sapiens, UniProt P14174).
T2 construct: made in house; host or cells: Escherichia coli BL21, pET-20b(p) plasmid
T2 sequence (P14174 2-115 limits assumed): T1 sequence (P14174 2-115 limits assumed)
The data set can be described thus: Enzyme kinetics of MIF-catalyzed PP conversion (Michaelis-Menten, Lineweaver-Burk). The class given is biochemical. The settings on record: for Vmax: 35 nM MIF. As to the method:
Enzyme kinetics experiments were performed to determine the mode of MIF inhibition by 6y (SI, Table S1). The rate of MIF-catalyzed PP conversion was measured at concentrations ranging from 0 to 10 mM in the absence or presence of various inhibitor concentrations (0, 1.4 μM, 2.1 μM, or 2.8 μM).
Toward this aim, 10 μL of the inhibitors was added to 190 μL of the enzyme solution and incubated for 10 min. Then, 50 μL of these solutions was mixed with 50 μL of the solutions of the substrate with different concentrations. The reactions were measured by the increase in UV absorbance at 300 nm, and the data from the first 3 min were used to calculate the initial velocities. The negative control (no MIF) was subtracted from all of the data, and the curves were fitted using nonlinear regression, Michaelis–Menten, and linear regression, Lineweaver–Burk. Vmax was defined as the maximum velocity as extrapolated by the curve fit. The Km of PP was defined as the concentration of PP at which 50% of maximum velocity was reached. The data were analyzed using GraphPad Prism 8.
1. Supporting figures and tables
Figure S1. Michaelis-Menten plot of MIF inhibition by 6y at the concentrations 0, 1.4, 2.1 and 2.8 µM.
Table S1. Kinetic parameters of 6y measured at 35nM of MIF.
(1 picture or pasted object on this page, not shown here)

Another data set deals with T3, MIF/AIF binding (Homo sapiens, UniProt P14174).
T3 construct: host or cells: Escherichia coli BL21 (MIF)
T3 sequence (P14174 2-115 limits assumed): T1 sequence (P14174 2-115 limits assumed)
As to the kind of experiment: MIF/AIF binding ELISA. The settings on record: MIF-coated plate, his-tagged AIF 4 μM. Here is the method:
Next, we investigated the mechanism by which 6y protects genome DNA. Considering that […] is a crucial step in parthanatos, we tested if 6y interferes with MIF/AIF binding in vitro. […] Under control conditions, MIF and AIF are mainly located in the cytosol. […] Human recombinant untagged MIF was diluted in the binding buffer (Tris-HCl 100 mM, 5 mM MgCl2, 150 mM NaCl, pH 8.5) to a final concentration of 250 nM. 100 μL of MIF solution was used to coat each well of a high-binding 96-well plate overnight at 4 °C. […] After 2 h incubation, the plate was washed three times with washing buffer and incubated with anti-poly-Histidine–peroxidase antibody (Sigma, Amsterdam, the Netherlands) for 30 min. After washing, 100 μL of mixed HRP substrate reagent (R&D Systems, Minneapolis) was added, and the colorizing reaction was stopped by adding 100 μL of 1N sulfuric acid. The absorbance at 450 nm was determined with the correction at […] via a Synergy H1 plate reader.
(In general: ELISA stands for enzyme-linked immunosorbent assay.)

“Also recorded” adds a separate entry of the source. Like-named read-outs stand apart in the source and are kept apart here.

For orientation: EC50 means the concentration needed to bring the measured effect to its halfway point. The term IC50 denotes the concentration needed to halve the response being measured. With `O=C(Nc1ccccc1)c1ccc(-n2cc(C(=O)NCc3cccs3)nn2)cc1` [Compound 6y, 1-(4-(Phenylcarbamoyl)phenyl)-N-(thiophen-2-ylmethyl)-1H-1,2,3-triazole-4-carboxamide], the EC50 was approximately 8 µM in the data set with HeLa cells [1] and 7.7 ± 2.1 µM in the data set on HeLa cells [1] (Homo sapiens). Besides, the MIF/PA20-Q1 binding entry on MIF/ssDNA binding is listed as “unable to block MIF/PA20-Q1 binding; also recorded: could not replace the oligonucleotide”. The “MNNG-induced DNA damage (comet assay)” value with HeLa cells [2] (HeLa, 50 μM 6y 2 h, then 10 μM MNNG 2 h, alkaline conditions) is “inhibited”. Further, the “Effect of compound alone on genome integrity (comet assay)” value with HeLa cells [2] (HeLa, without MNNG) is “did not affect genome integrity”. In addition, the “Genomic DNA fragmentation (gel electrophoresis)” value with HeLa cells [2] (pretreatment, dose and time-dependent) was “protective effect”. In addition, the values for the Vmax at MIF (1.4 μM 6y), at MIF (2.1 µM 6y) and at MIF (2.8 μM 6y) were 0.21±0.02 abs/min, 0.13±0.01 abs/min and 0.08±0.01 abs/min, respectively. Besides, the “Mode of MIF inhibition” value at MIF (Lineweaver-Burk plot, 0, 1.4, 2.1, 2.8 μM) is “noncompetitive”. Further, the “Vmax at highest inhibitor concentration” value on MIF (decreasing from 0.40 ± 0.03 (control)) was 0.08 ± 0.01 absorbance/min. Further, the IC50 on MIF/AIF binding worked out at 12.3 µM.
